{"source": "paper PMC8400920", "about": "“Metabolism of Diterpenoids Derived from the Bark of Cinnamomum cassia in Human Liver Microsomes” (Pharmaceutics, 2021)", "key": {"[1]": {"test_system": "human liver microsomes (HLMs)", "assay": "Metabolic stability of seven diterpenoids in human liver microsomes", "type": "in vitro ADME", "conditions": "10 µM, 0.5 mg/mL HLMs, 37 °C, 60 min", "protocol": "For metabolism profiling, 10 µM of each of the seven compounds isolated from C. cassia bark was added to 0.5 mg/mL of pooled HLMs and 0.1 M potassium phosphate buffer (pH 7.4). The HLMs were then preincubated at 37 °C for 1 min. After adding NGS, the reaction mixture was incubated at 37 °C for 60 min. After the 60 min incubation period, 50 µL of the reaction mixture was transferred to a new tube, and 50 µL of 100% ACN containing 0.1% formic acid and tolbutamide (internal standard) was added to terminate the reaction. The mixture was then vortexed, followed by centrifugation at 15,700× g (13,000 rpm) for 10 min (Eppendorf AG, Hamburg, Germany). Finally, 90 µL of the supernatant was transferred to a vial and injected into a C18 column for LC–MS/MS analysis.\nThe metabolism screening of the seven compounds was performed using an HPLC system (Thermo Fisher Scientific, Bremen, Germany) equipped with an HPG-3200SD standard binary pump, a WPS-3000 TRS analytical autosampler, and a TCC-3000 SD column compartment. The HPLC system was coupled with an HR-MS (Q-Exactive Focus Quadrupole-Orbitrap MS; Thermo Fisher Scientific, Waltham, MA, USA) at the Mass Spectrometry Convergence Research Center. The full MS resolution and scan ranges were 70,000 and 60–900 m/z, respectively. The MS/MS resolution was 35,000. The mass spectra were obtained in negative ion electrospray mode. A heated electrospray ionization (HESI-II) probe was used as an ion generator, with nitrogen as the sheath gas at 35 aux units and auxiliary gas at 12 aux units. The mass spectrometer was operated in negative ionization mode. The other parameters were as follows: spray voltage, 3.5 kV; capillary temperature, 320 °C; S-lens radio frequency level, 50; and aux gas heater temperature, 400 °C.\nThe mobile phase consisted of 100% water with 0.1% formic acid (mobile phase A) and 100% ACN with 0.1% formic acid (mobile phase B). For metabolic stability, the gradient conditions were set as follows: 5% of B at 0.5–2.0 min, 5–50% of B at 2.0–4.5 min, 50% of B at 4.5–7.0 min, and 50–5% of B at 7.0–10.0 min at 40 °C with a flow rate of 0.2 mL/min. For metabolite identification, the gradient conditions were as follows: 10% of B at 0–5 min, 10–55% of B at 5–15 min, 55% of B at 15–23 min, and 55–10% of B at 23–30 min with a flow rate of 0.25 mL/min. Chromatographic separation was performed using a Kinetex C18 column (150 × 2.1 mm, 2.6 μm, XB-C18 100 Å, S/No: H19-070128; Phenomenex, Torrance, CA, USA). Data were analyzed using Xcalibur version 4.0 software (Thermo Fisher Scientific, Waltham, MA, USA).\nTo confirm their metabolic stability, seven diterpenoids (AHC, anhydrocinnzeylanol, cinncassiol A, cinncassiol B, cinnzeylanol, cinnzeylanone, and cinnzeylanine) derived from the bark of C. cassia were incubated with HLMs in the presence of the NGS for 60 min (Figure 1B). The metabolic stability of each compound was determined according to the ratio of the peak area at 60 min to that at 0 min. […] Therefore, we identified the metabolites of AHC produced in HLMs."}, "[2]": {"test_system": "human liver microsomes (HLMs)", "assay": "Identification of phase I metabolites of AHC in HLMs", "type": "in vitro ADME", "conditions": "10 µM AHC, 1 mg/mL pooled HLMs, with NGS, 60 min", "protocol": "To identify AHC metabolites, 10 µM AHC was incubated with 1 mg/mL pooled HLMs in 0.1 M potassium phosphate buffer (pH 7.4) at 37 °C for 60 min. The reactions were initiated by adding NGS to obtain a final incubation volume of 200 µL. All experiments were conducted in triplicate. The reaction was terminated by adding 400 µL of 100% ACN, and the mixture was vortexed and then centrifuged for 10 min at 15,700× g. Next, the supernatant (550 µL) was transferred to a new tube and dried using a speed-vac concentrator with a cold trap (Labconco, Kansas, MO, USA). Subsequently, the dried samples were reconstituted in 100 µL of 20% MeOH containing 0.1% formic acid before centrifugation at 15,700× g for 10 min. Finally, the mixture was injected into a liquid chromatograph with a tandem mass spectrometer for analysis. […]\nThe mobile phase consisted of 100% water with 0.1% formic acid (mobile phase A) and 100% ACN with 0.1% formic acid (mobile phase B). […] Data were analyzed using Xcalibur version 4.0 software (Thermo Fisher Scientific, Waltham, MA, USA).\nTo identify the phase I metabolites of AHC in HLMs, 10 µM AHC was incubated in pooled HLMs without or with the NGS for 60 min. […] The extracted ion chromatograms of the generated AHC metabolites are shown in Figure 2A,B. AHC was detected as a deprotonated ion, [M − H]^−, at m/z 407 and 15.6 min in the negative ion mode. […]"}}, "note": "Entries after “also recorded” stand apart in the source; their conditions may differ.", "data": [{"smiles": "CC(=O)O[C@@H]1[C@@H](C)CC[C@]2(O)[C@]3(C)CC(=O)O[C@]12[C@@]1(O)C(C)=C(C(C)C)C[C@@]31O", "note": "[AHC, anhydrocinnzeylanine]", "values": [{"measurement": "metabolic stability in HLMs (in words)", "setting": "[1]; NGS", "value": "most rapid metabolization; also recorded: unique reduction in metabolic stability; also recorded: highest metabolic rate"}, {"measurement": "parent remaining after metabolism in HLMs (metabolized to)", "setting": "[1]; β-NADPH", "value": 3, "unit": "%"}, {"measurement": "number of metabolites produced in HLMs", "setting": "[2]", "value": 20}]}]}
